According to patent US11529359B2, “Use of GABAA receptor modulators for treatment of itch” (UNIVERSITÄT ZÜRICH, priority 2016, dated 2022):

What was measured:
[1] = test system: α-Me-5HT-induced itch; experiment: α-methyl 5-HT-induced itch (cheek injection) in wild-type mice; assay type: in vivo, wild-type mice (129X1/SvJ); conditions: 1 mg/kg p.o.; 20 μg α-methyl 5-HT
[2] = test system: histamine-induced itch; experiment: histamine-induced itch (cheek injection) in wild-type mice; assay type: in vivo, wild-type C57BL6/J mice; conditions: per oral 0.01, 0.03, 0.1, 1 and 3 mg/kg 90 min before 100 μg histamine; 30 min
Protocol: (§1) Acute itch was assessed in mice that received intradermal microinjections of pruritogens or 0.9% saline into the right cheek, which had been shaved at least one day before the experiment. In two sets of experiments that addressed the contribution of GABAARs in primary and secondary pruritoceptors, pruritogens were injected in the right thigh (FIG. 17). Before injection, mice were acclimatized to a 15 cm diameter cylindrical enclosure for more than 30 min with cage bedding on the ground. Background white noise generated by a radio in the room at ambient volume was applied to prevent auditory distraction. A 30 gauge needle was inserted bevel-up and pushed 5 mm horizontally into the skin beyond the point of insertion, before injection of the pruritogen (in a total volume of 10 μl). No anesthesia was used. Correct injection was confirmed by the appearance of a slightly domed bulla upon injection. […] Videos were analyzed off-line. Scratching of the hind paw directed to the ipsilateral cheek was counted in bouts, with one scratching bout defined as an instance when the mouse lifted its paw to scratch until it returned the paw to the cage floor. In case of experiments in which the pruritogen was injected in the skin of the thigh, the time spent biting the injected skin area was counted in s/min as a measure of itch.

[3] = target: T1, α2β3γ2 GABAARs (Homo sapiens, UniProt P18507+P47869); experiment: GABA-evoked currents, recombinant GABAARs in HEK293 cells (α2); assay type: cell-based; conditions: HEK293 cells transiently transfected
T1 construct: expressed in transfected cells; host or cells: HEK293 cells (ATCC), transient transfection
Source text: (§2) HEK293 cells were transfected using lipofectamine LTX (Dugue, G. P., et al. Neuron, 2009, 61, 126-139). To ensure expression of the γ2 subunit (required for modulation of GABAARs by BDZs) in all recorded cells, the inventors transfected cells with a plasmid expressing the γ2 subunit plus eGFP from an IRES, and only selected eGFP-positive cells for recordings. The transfection mixture contained (in μg): 1 α1, 1 β2, 3 γ2/eGFP (used as a marker of successful transfection) or 1 αx, 1 β3, 3 γ2/eGFP in case of α2, α3, or α5GABAARs. Recordings were made 18-36 hrs after transfection. Whole-cell patch-clamp recordings of GABA-evoked currents were made at room temperature (20-24° C.) and at a holding potential of −60 mV. Recording electrodes were filled with solution containing (in mM): 120 CsCl, 10 EGTA, 10 HEPES (pH 7.40), 4 MgCl2, 0.5 GTP and 2 ATP. The external solution contained (in mM): 150 NaCl, 10 KCl, 2.0 CaCl2, 1.0 MgCl2, 10 HEPES (pH 7.4), and 10 glucose. GABA was applied to the recorded cell using a manually controlled pulse (4-6 s) of a low sub-saturating GABA concentration (ECS). ECs values of GABA were determined for all subunit combinations analyzed. […] Imax was determined as the average maximal current elicited by a concentration of 1 mM GABA. […]

[4] = test system: α5GABAARs; experiment: GABA-evoked currents, recombinant GABAARs in HEK293 cells (α5); assay type: cell-based; conditions: HEK293 cells transiently transfected
Source text: as §2

[5] = test system: locomotor activity; experiment: open field test, locomotor activity / sedation; assay type: in vivo, wild-type mice
Protocol: After injection, the mice were placed in an open field arena and their activity was recorded for one hour starting one hour after injection.
(§3) Locomotor activity, muscle relaxant effects and motor coordination were assessed as described previously (Ralvenius, W. T., Benke, D., Acuña, M. A., Rudolph, U. & Zeilhofer, H. U. Nature Communications, 2015, 6). […] Motor coordination was assessed with a rotarod accelerating from 4 rpm to 40 rpm within 5 min. […] Fifteen measurements were taken per mouse. To assess muscle relaxation, mice were placed with their forepaws onto a metal horizontal wire placed 20 cm above ground.

[6] = test system: muscle relaxation; experiment: horizontal wire test (muscle relaxation); assay type: in vivo, mice; conditions: p.o., 60-120 min after administration
Protocol: as §3

[7] = test system: brain membranes prepared from α1,2,3,5 H→R point mutated mice; assay type: binding, mice (RRRR); conditions: 4 nM [3H]Ro 15-4513; increasing concentrations; n=4
Protocol: The supernatant was centrifuged for 20 min at 30,000 g and the resulting crude membrane pellet was washed once with buffer. […] Non-specific [^3H]Ro 15-4513 binding was assessed by addition of 10 μM flumazenil to the reaction. Incubation was stopped by rapid vacuum filtration using a semiautomatic cell harvester (Skatron Instruments) and washed filters were subjected to liquid scintillation counting.

[8] = test system: chloroquine-induced itch; experiment: chloroquine-induced itch (cheek injection) in wild-type mice; assay type: in vivo, wild-type C57BL6/J mice; conditions: p.o.; wild-type mice; 100 μg chloroquine
Protocol: as §1

[9] = test system: motor coordination; experiment: rotarod assay (motor coordination); assay type: in vivo, mice; conditions: p.o., 60 min after administration
Protocol: as §3

[10] = test system: GABAARs; experiment: recombinant GABAARs in HEK293 cells, direct activation in the absence of GABA; assay type: cell-based
Source text: as §2

[11] = target: T2, α3 GABAARs (Homo sapiens, UniProt P18507+P34903); experiment: GABA-evoked currents, recombinant GABAARs in HEK293 cells (α3); assay type: cell-based; conditions: HEK293 cells transiently transfected
T2 construct: expressed in transfected cells; host or cells: HEK293 cells (ATCC), transient transfection
Source text: as §2

[12] = test system: chloroquine-induced itch; experiment: chloroquine-induced itch (thigh injection), intrathecal drug, wild-type mice; assay type: in vivo; conditions: 0.3 mg/kg intrathecal; 100 μg chloroquine into right thigh
Protocol: as §1

T1 sequence (P47869 29-451): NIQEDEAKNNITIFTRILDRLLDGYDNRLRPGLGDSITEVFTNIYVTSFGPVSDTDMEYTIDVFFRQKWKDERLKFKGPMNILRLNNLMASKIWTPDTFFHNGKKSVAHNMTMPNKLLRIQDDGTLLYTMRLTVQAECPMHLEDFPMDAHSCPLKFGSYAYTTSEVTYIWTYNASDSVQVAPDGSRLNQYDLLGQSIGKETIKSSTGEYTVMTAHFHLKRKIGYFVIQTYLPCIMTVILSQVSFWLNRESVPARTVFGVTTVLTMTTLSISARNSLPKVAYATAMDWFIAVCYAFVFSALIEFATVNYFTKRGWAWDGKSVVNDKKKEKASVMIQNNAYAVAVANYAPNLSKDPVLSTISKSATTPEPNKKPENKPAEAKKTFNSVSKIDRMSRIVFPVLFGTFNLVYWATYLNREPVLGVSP
T1 sequence (P28472 26-473 partner): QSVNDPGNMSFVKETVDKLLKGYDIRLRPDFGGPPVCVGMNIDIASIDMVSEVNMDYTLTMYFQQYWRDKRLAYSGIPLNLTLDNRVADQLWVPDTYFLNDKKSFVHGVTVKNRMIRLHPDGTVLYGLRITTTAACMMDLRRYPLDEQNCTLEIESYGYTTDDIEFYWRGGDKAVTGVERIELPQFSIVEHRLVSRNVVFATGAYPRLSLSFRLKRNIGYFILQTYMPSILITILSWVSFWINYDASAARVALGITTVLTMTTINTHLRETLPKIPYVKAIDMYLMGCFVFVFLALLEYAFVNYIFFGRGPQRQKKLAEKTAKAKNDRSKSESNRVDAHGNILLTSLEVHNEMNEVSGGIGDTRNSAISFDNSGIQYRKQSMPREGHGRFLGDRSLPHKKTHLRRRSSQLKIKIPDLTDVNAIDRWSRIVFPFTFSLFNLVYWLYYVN
T1 sequence (P18507 40-467 limits assumed): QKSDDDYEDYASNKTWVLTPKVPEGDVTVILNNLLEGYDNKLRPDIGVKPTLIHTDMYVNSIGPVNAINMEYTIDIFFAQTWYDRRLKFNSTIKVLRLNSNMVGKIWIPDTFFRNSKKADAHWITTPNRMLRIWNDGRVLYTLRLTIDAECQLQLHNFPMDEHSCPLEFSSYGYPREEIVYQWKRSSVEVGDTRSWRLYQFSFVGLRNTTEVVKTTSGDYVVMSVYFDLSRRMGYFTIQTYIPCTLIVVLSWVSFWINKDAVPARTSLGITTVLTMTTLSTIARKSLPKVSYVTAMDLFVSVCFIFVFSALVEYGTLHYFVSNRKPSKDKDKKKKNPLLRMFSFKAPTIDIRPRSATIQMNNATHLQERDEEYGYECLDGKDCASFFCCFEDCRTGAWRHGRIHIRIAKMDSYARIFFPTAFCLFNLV
T2 sequence (P34903 29-492): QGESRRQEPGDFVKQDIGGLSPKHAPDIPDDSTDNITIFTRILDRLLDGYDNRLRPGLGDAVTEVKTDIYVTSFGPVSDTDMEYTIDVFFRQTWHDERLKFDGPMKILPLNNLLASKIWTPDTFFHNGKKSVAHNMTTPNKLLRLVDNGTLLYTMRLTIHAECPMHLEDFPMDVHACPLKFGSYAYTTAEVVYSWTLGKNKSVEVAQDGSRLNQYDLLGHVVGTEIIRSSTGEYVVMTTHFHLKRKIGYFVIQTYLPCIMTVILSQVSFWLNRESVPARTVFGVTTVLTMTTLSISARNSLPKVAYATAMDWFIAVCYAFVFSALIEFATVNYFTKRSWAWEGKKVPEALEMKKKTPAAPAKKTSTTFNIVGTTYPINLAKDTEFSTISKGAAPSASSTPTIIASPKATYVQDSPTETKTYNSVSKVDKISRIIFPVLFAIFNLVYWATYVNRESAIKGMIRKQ
T2 sequence (P28472 26-473 partner): as the sequence (P28472 26-473 partner) above
T2 sequence (P18507 40-467 limits assumed): as the sequence (P18507 40-467 limits assumed) above

SMILES: CC(C)(O)c1cnn2c(-c3ccc(F)c(-c4c(F)cccc4C#N)c3)cnc2n1 [TPA023B, 6,2′-difluoro-5′-[3-(1-hydroxy-1-methylethyl)imidazo[1,2-b][1,2,4]triazin-7-yl]biphenyl-2-carbonitrile]
- antipruritic action in wild-type mice [1]: strong antipruritic actions
- scratching bouts, histamine-induced itch [2]: dose-dependent reduction of scratching bouts
- activity at the benzodiazepine binding site (potentiation of GABA-induced currents) [3]: partial agonistic activity
- potentiation of GABA-induced currents [4]: only very weak potentiating effects
- locomotor activity in the open field test ([5]; 1 and 3 mg/kg p.o.): increased locomotor activity
- sedative effects ([5]; doses up to 3 mg/kg (p.o.)): did not show sedative effects
- activity in open field arena vs vehicle ([5]; per oral 10 mg/kg and 30 mg/kg, recorded 1-2 h after injection): significant increase in activity
- muscle relaxation in the horizontal wire test [6]: did not cause muscle relaxation
- displacement of [3H]Ro 15-4513 binding [7]: failed to displace
- doses at which chloroquine-induced scratching behavior was reduced [8]: 0.03 mg/kg
- motor coordination in the rotarod assay [9]: did not reduce motor coordination
- activation of GABAARs in the absence of GABA [10]: did not activate
- activity at the benzodiazepine binding site (potentiation of GABA-induced currents) [11]: partial agonistic activity
- antipruritic action after intrathecal injection (biting time, scratching bouts 0-10 min) [12]: antipruritic action
